Values quoted from earlier work as cited in patent US20210008096A1, “SUPPRESSION OR REDUCTION OF THE PAT[…] VIRULENCE OF A C[…]” (Da Volterra, priority 2015, published 2021).

Tested on: Clostridium difficile
Settings: following treatment of CDAD; 15% vs 25%

CCc1c(Cl)c(O)c(Cl)c(O)c1C(=O)O[C@H]1[C@H](O)[C@H](OC)[C@H](OC/C2=C\C=C\C[C@H](O)/C(C)=C/[C@H](CC)[C@@H](O[C@@H]3OC(C)(C)[C@@H](OC(=O)C(C)C)[C@H](O)[C@@H]3O)/C(C)=C/C(C)=C/C[C@@H]([C@@H](C)O)OC2=O)O[C@@H]1C [fidaxomycin, fidaxomicin]
rate of recurrence: 15%
